Values of other authors in US9700872B1, “Superpolar chromatographic stationary phases and extraction sorbents and their methods of synthesis” (THE FLORIDA INTERNATIONAL UNIVERSITY BOARD OF TRUSTEES, priority 2016, dated 2017).

details: octanol/water; Top 100 EPA Priority Pollutants (Table 2)

Point of comparison: CCCl [Chloroethane], “Log Kow” value 1.2. Against it:
- Clc1ccccc1Cl [1,2-Dichlorobenzene] — higher, 3.4
- Brc1ccc(Oc2ccccc2)cc1 [4-Bromophenyl phenyl ether] — higher, 4.4
- Clc1ccc(Oc2ccccc2)cc1 [4-Chlorophenyl phenyl ether] — higher, 4.3
- c1cc2c3c(cccc3c1)CC2 [Acenaphthene] — higher, 3.9
- C1=Cc2cccc3cccc1c23 [Acenaphthylene] — higher, 3.7
- c1ccc2cc3ccccc3cc2c1 [Anthracene] — higher, 4.4
- c1ccc2c(c1)cc1ccc3cccc4ccc2c1c34 [Benzo(a)pyrene] — higher, 6
- CCCCC(CC)COC(=O)c1ccccc1C(=O)OCC(CC)CCCC (centres unmarked) [Bis(2-Ethylhexyl)phthalate] — higher, 7.4
- Clc1ccccc1 [Chlorobenzene] — higher, 2.84
- CCCCOC(=O)c1ccccc1C(=O)OCCCC [Di-N-butyl phthalate] — higher, 4.7
- CCOC(=O)c1ccccc1C(=O)OCC [Diethyl phthalate] — higher, 2.5
- c1ccc2c(c1)Cc1ccccc1-2 [Fluorene] — higher, 4.2
- CC1=CC(=O)CC(C)(C)C1 [Isophorone] — higher, 1.6
- c1ccc2c(c1)ccc1ccccc12 [Phenanthrene] — higher, 4.5

same assay, conditions: octanol/water; exemplary polyhydroxy molecules (Table 1)

Point of comparison: OC[C@H]1O[C@H](O[C@]2(CCl)O[C@H](CCl)[C@@H](O)[C@@H]2O)[C@H](O)[C@@H](O)[C@H]1Cl [Sucralose], “Log Kow” value −1.5. Against it:
- OC[C@@H](O)[C@@H](O)[C@H](O)[C@@H](O)CO [Sorbitol] — lower, −3.1
